Results on four compounds are retold here after US10751303B2, “Method for shortening anti-infective therapy duration in subjects with infection” (INSTITUTE FOR CLINICAL PHARMACODYNAMICS, INC., priority 2015, dated 2020).

Holding throughout (type): cell-based
The subject of assay [1] is E. coli JMI 21711R. Put plainly: change in bacterial density in vitro over 24 hours (growth rate). An excerpt:
Moreover, note the impact of ascorbic acid on the time-course of levofloxacin antimicrobial activity.

The test system of assay [2] is E. coli JMI 21711R. The assay is described as follows: levofloxacin MIC. Conditions: Escherichia coli, JMI21711R.
For assay [3], the system named is S. aureus ATCC 29213. Put plainly: 10-day hollow-fiber in vitro infection model. An excerpt:
The treatment arms and associated control arms differed only in sodium chloride concentration (0 and 8%) within the growth media. The initial bacterial inoculum in the model was 1×10^8 CFU/mL was selected to approximate that observed in high-density infections, such as pneumonia. Moreover, the 10-day study duration was selected to approximate that typical for pneumonia.
Note that in the media in which the challenge isolate grew slowly (sodium chloride 8%), the time-until a reduction of bacterial density to 1×10^2 CFU/mL was 10 days. On the other hand, in the media in which the challenge isolate grew rapidly (sodium chloride 0%), the time-until reduction of bacterial density to 1×10^2 CFU/mL was 3 days.

The subject of assay [4] is S. aureus ATCC 29213. Put plainly: levofloxacin MIC. Conditions: Staphylococcus aureus, ATCC29213.
Assay [5] has as its system E. coli JMI 21711R. Particulars: norepinephrine 500 μM, no levofloxacin. The protocol: Each treatment arm and its associated control arm differed only in norepinephrine concentration (0, 500 μM) within the growth media.
The test system of assay [6] is S. aureus ATCC 29213. Put plainly: 24-hour one-compartment dynamic in vitro infection model. Conditions: 10% sodium chloride, no levofloxacin. An excerpt:
Not previously recognized is the potential to modulate the intrinsic bacterial replication rate in combination with an antimicrobial agent as a means to increase the rate and extent of bactericidal activity. […] Each treatment arm and associated control arm differed only in sodium chloride concentration (0, 8, and 10%) within the growth media. […] Note also that bacterial killing occurred only during bacterial replication.

Assay [7] concerns S. aureus ATCC 29213. The assay is described as follows: change in bacterial density in vitro over 24 hours (growth rate in Mueller-Hinton II broth). Conditions: S. aureus ATCC 29213, in vitro over 24 hours, starting inoculum 1×10^6 CFU/mL, increasing sodium chloride concentration.

Values after ≈ are worked out from the molar mass of the structure shown. “Also recorded” adds a separate entry of the source.

Take `O=C1O[C@H]([C@@H](O)CO)C(O)=C1O` [ascorbic acid, Ascorbic acid]: in assay [1] (ascorbic acid without levofloxacin), the “bacterial replication rate relative to no treatment control” value is reported as “increases the bacterial replication rate relative to no treatment control”.
With `C[C@H]1COc2c(N3CCN(C)CC3)c(F)cc3c(=O)c(C(=O)O)cn1c23` [levofloxacin], the values for the MIC in assay [2] and in assay [4] were 8 µg/mL (≈ 22.1 µM) and 0.125 µg/mL (≈ 0.346 µM), respectively. Moreover, in assay [3] (fast (sodium chloride 0%) versus slow (sodium chloride 8%) growing media), the “reduction in time-until a reduction of bacterial density to 1×10^2 CFU/mL” value was determined as 70%. Moreover, the “time-until reduction of bacterial density to 1×10^2 CFU/mL” value in assay [3] (sodium chloride 0% (rapid growth), initial inoculum 1×10^8 CFU/mL, levofloxacin AUC:MIC ratio 520) came to 3 days. The “time-until a reduction of bacterial density to 1×10^2 CFU/mL” value in assay [3] (sodium chloride 8% (slow growth), initial inoculum 1×10^8 CFU/mL, levofloxacin AUC:MIC ratio 520) is 10 days.
On to `NCC(O)c1ccc(O)c(O)c1` (stereo not shown) [norepinephrine, Norepinephrine], for which the “bacterial replication rate (change in bacterial density)” value in assay [1] (starting inoculum 1×10^6 CFU/mL, increasing norepinephrine concentration) is listed as “as norepinephrine concentration increases so too does the bacterial replication rate; also recorded: sped up”. In assay [5], the “growth of control arm relative to no-treatment control arm” value is on record as “grew faster”.
For `[Cl-].[Na+]` [sodium chloride], the “growth in control arm” value in assay [6] is on record as “delayed for four hours”. Also, in assay [7], the “bacterial replication rate (change in bacterial density)” value is “as sodium chloride concentration increases, the bacterial replication rate decreases; also recorded: slowed”.

In general, MIC refers to the smallest concentration in the dilution series that meets the test's criterion for growth inhibition.
